The values below come from patent publication US12662469B2 (SIRONAX LTD, priority 2018, dated 2026).

One assay has as its system Cell Necrosis. The assay can be described thus: Cell necrosis assay / cell viability assay (necrosis inhibitor activity). The assay is classed as cell-based.
Conditions: not given
As to `O=C1COc2cc(F)c(OC3CN(C(=O)N4N=CC[C@@H]4c4ccccc4)C3)cc2N1` [(R)-7-fluoro-6-((1-(5-phenyl-4,5-dihydro-1H-pyrazole-1-carbonyl)azetidin-3-yl)oxy)-2H-benzo[b][1,4]oxazin-3(4H)-one], the “activity based on the cell activity assay” value is listed as “weak activity”.

Staying with this assay, now noted: necrosis inhibitor activity; EC data for 14-191 extrapolated; read-out: EC50.
Regarding `C[C@H]1CN(c2ncc(F)cn2)CCN1C(=O)N1N=CCC1c1ccccc1` (stereo in doubt) [Compound 111A, (S)-(4-(5-fluoropyrimidin-2-yl)-2-methylpiperazin-1-yl)(5-phenyl-4,5-dihydro-1H-pyrazol-1-yl)methanone], the concentration for a half-maximal effect (EC50) is 1 to 1000 nM.

Take `C[C@H]1CN(c2ncc(F)cn2)CCN1C(=O)N1N=CCC1c1ccccc1` (stereo in doubt) [Compound 111B, (S)-(4-(5-fluoropyrimidin-2-yl)-2-methylpiperazin-1-yl)(5-phenyl-4,5-dihydro-1H-pyrazol-1-yl)methanone]: the EC50 was 1000 to 10000 nM. Still for that read-out and setting: the same measure for `C[C@H]1CN(c2ncccn2)CCN1C(=O)N1N=CCC1c1ccccc1` (stereo in doubt) [Compound 112A, (S)-(2-methyl-4-(pyrimidin-2-yl)piperazin-1-yl)(5-phenyl-4,5-dihydro-1H-pyrazol-1-yl)methanone]: 1 to 1000 nM. On the same count and under the same terms, next, `C[C@H]1CN(c2ncccn2)CCN1C(=O)N1N=CCC1c1ccccc1` (stereo in doubt) [Compound 112B, (S)-(2-methyl-4-(pyrimidin-2-yl)piperazin-1-yl)(5-phenyl-4,5-dihydro-1H-pyrazol-1-yl)methanone]: 1000 to 10000 nM; `O=C(N1CCc2ccccc2C1)N1N=CCC1c1ccccc1` (stereo not drawn) [Compound 15, (3,4-dihydroisoquinolin-2(1H)-yl)(5-phenyl-4,5-dihydro-1H-pyrazol-1-yl)methanone]: 1000 to 10000 nM. Consider `O=C(N1CC(Cc2ccccc2)C1)N1N=CCC1c1ccccc1` (stereo not drawn) [Compound 16, (3-benzylazetidin-1-yl)(5-phenyl-4,5-dihydro-1H-pyrazol-1-yl)methanone], for which the EC50 is 1 to 1000 nM. As for `O=C(N1CCC(Cc2ccccc2)C1)N1N=CCC1c1ccccc1` (stereo not drawn) [Compound 17, (3-benzylpyrrolidin-1-yl)(5-phenyl-4,5-dihydro-1H-pyrazol-1-yl)methanone], the concentration for a half-maximal effect (EC50) was 1 to 1000 nM. `O=C(N1CCC(Cc2ccccc2)CC1)N1N=CCC1c1ccccc1` (stereo not drawn) [Compound 18, (4-benzylpiperidin-1-yl)(5-phenyl-4,5-dihydro-1H-pyrazol-1-yl)methanone]: the concentration for a half-maximal effect (EC50) was 1 to 1000 nM.

For the compound `O=C(N1CC(Nc2ccccc2)C1)N1N=CCC1c1ccccc1` (stereo not drawn) [Compound 19, (5-phenyl-4,5-dihydro-1H-pyrazol-1-yl)(3-(phenylamino)azetidin-1-yl)methanone], the EC50 is 1000 to 10000 nM. With `CN(c1ccccc1)C1CN(C(=O)N2N=CCC2c2ccccc2)C1` (stereo not drawn) [Compound 20, (3-(methyl(phenyl)amino)azetidin-1-yl)(5-phenyl-4,5-dihydro-1H-pyrazol-1-yl)methanone], the EC50 is 1000 to 10000 nM. Same read-out and setting: the same measure for `O=C(NC1CCC(c2ccccc2)C1)N1N=CCC1c1ccccc1` (stereo not drawn) [Compound 21, 5-phenyl-N-(3-phenylcyclopentyl)-4,5-dihydro-1H-pyrazole-1-carboxamide]: 1 to 1000 nM; for `O=C(NC1CCN(c2ncccn2)C1)N1N=CCC1c1ccccc1` (stereo not drawn) [Compound 22]: 1000 to 10000 nM; for `O=C(NC1CCN(c2ccc(F)cn2)C1)N1N=CCC1c1ccccc1` (stereo not drawn) [Compound 23, N-(1-(5-fluoropyridin-2-yl)pyrrolidin-3-yl)-5-phenyl-4,5-dihydro-1H-pyrazole-1-carboxamide]: 1 to 1000 nM.

`O=C(NC1CCN(c2ccccc2)C1)N1N=CCC1c1ccccc1` (stereo not drawn) [Compound 24, 5-phenyl-N-(1-phenylpyrrolidin-3-yl)-4,5-dihydro-1H-pyrazole-1-carboxamide]: the EC50 was 1 to 1000 nM.

`O=C(N[C@H]1CC[C@H](Oc2ccccc2)C1)N1N=CCC1c1ccccc1` (stereo partly drawn) [Compound 25, N-((1S,3S)-3-phenoxycyclopentyl)-5-phenyl-4,5-dihydro-1H-pyrazole-1-carboxamide]: the EC50 is 1000 to 10000 nM. Same read-out and setting: the same measure for `O=C(N1CC[C@H](Oc2ccccc2)C1)N1N=CCC1c1ccccc1` (stereo partly drawn) [Compound 27A, ((S)-3-phenoxypyrrolidin-1-yl)(S-phenyl-4,5-dihydro-1H-pyrazol-1-yl)methanone]: 1000 to 10000 nM.

In the case of `O=C(N1CC[C@H](Oc2ccccc2)C1)N1N=CCC1c1ccccc1` (stereo partly drawn) [Compound 27B, ((S)-3-phenoxypyrrolidin-1-yl)(S-phenyl-4,5-dihydro-1H-pyrazol-1-yl)methanone], the concentration giving a half-maximal response (EC50) was 1 to 1000 nM. In the case of `C[C@@H]1CN(c2ncc(F)cn2)C[C@H](C)N1C(=O)N1N=CCC1c1ccccc1` (stereo partly drawn) [Compound 28, ((2R,6S)-4-(5-fluoropyrimidin-2-yl)-2,6-dimethylpiperazin-1-yl)(5-phenyl-4,5-dihydro-1H-pyrazol-1-yl)methanone], the half-maximal effective concentration (EC50) was 1 to 1000 nM. Same read-out and setting: next, `C[C@@H]1CN(c2ncc(F)cn2)C[C@H](C)N1C(=O)N1N=CCC1c1cccc(F)c1` (stereo partly drawn) [Compound 29, (5-(3-fluorophenyl)-4,5-dihydro-1H-pyrazol-1-yl)((2R,6S)-4-(5-fluoropyrimidin-2-yl)-2,6-dimethylpiperazin-1-yl)methanone]: 1 to 1000 nM; `C[C@@H]1CN(c2ncc(F)cn2)C[C@H](C)N1C(=O)N1N=CCC1c1cc(F)cc(F)c1` (stereo partly drawn) [Compound 30, (5-(3,5-difluorophenyl)-4,5-dihydro-1H-pyrazol-1-yl)((2R,6S)-4-(5-fluoropyrimidin-2-yl)-2,6-dimethylpiperazin-1-yl)methanone]: 1 to 1000 nM. Still for that read-out and setting: next, `O=C(N1CC[C@@H](Oc2ccccc2F)C1)N1N=CCC1c1ccccc1` (stereo partly drawn) [Compound 31, ((R)-3-(2-fluorophenoxy)pyrrolidin-1-yl)(5-phenyl-4,5-dihydro-1H-pyrazol-1-yl)methanone]: 1 to 1000 nM; `O=C(N1CC[C@@H](Oc2cccc(F)c2)C1)N1N=CCC1c1ccccc1` (stereo partly drawn) [Compound 32, ((R)-3-(3-fluorophenoxy)pyrrolidin-1-yl)(5-phenyl-4,5-dihydro-1H-pyrazol-1-yl)methanone]: 1 to 1000 nM; `O=C(N1CC[C@@H](Oc2ccc(F)cc2)C1)N1N=CCC1c1ccccc1` (stereo partly drawn) [Compound 33, ((R)-3-(4-fluorophenoxy)pyrrolidin-1-yl)(5-phenyl-4,5-dihydro-1H-pyrazol-1-yl)methanone]: 1 to 1000 nM. For `O=C(N1CC[C@@H](Oc2ncc(F)cn2)C1)N1N=CCC1c1ccccc1` (stereo partly drawn) [Compound 34, ((R)-3-((5-fluoropyrimidin-2-yl)oxy)pyrrolidin-1-yl)(5-phenyl-4,5-dihydro-1H-pyrazol-1-yl)methanone], the EC50 is 1000 to 10000 nM.

On to `O=C(N1CC[C@@H](Oc2cccc(Cl)c2)C1)N1N=CCC1c1ccccc1` (stereo partly drawn) [Compound 35, ((R)-3-(3-chlorophenoxy)pyrrolidin-1-yl)(5-phenyl-4,5-dihydro-1H-pyrazol-1-yl)methanone], for which the 50% effective concentration (EC50) is 1000 to 10000 nM. Still for that read-out and setting: next, `O=C(N1CC(=Cc2ccccc2)C1)N1N=CCC1c1ccccc1` (stereo not drawn) [Compound 36, (3-benzylideneazetidin-1-yl)(5-phenyl-4,5-dihydro-1H-pyrazol-1-yl)methanone]: 1 to 1000 nM.

Regarding `Cc1ccccc1CC1CN(C(=O)N2N=CCC2c2ccccc2)C1` (stereo not drawn) [Compound 37, (3-(2-methylbenzyl)azetidin-1-yl)(5-phenyl-4,5-dihydro-1H-pyrazol-1-yl) methanone], the concentration for a half-maximal effect (EC50) is 1 to 1000 nM. In the case of `Cc1ccccc1C=C1CN(C(=O)N2N=CCC2c2ccccc2)C1` (stereo not drawn) [Compound 38, (3-(2-methylbenzylidene)azetidin-1-yl)(5-phenyl-4,5-dihydro-1H-pyrazol-1-yl)methanone], the EC50 is 1 to 1000 nM.

The same assay, now with this note: necrosis inhibitor activity; compounds outside 14-191; read-out: EC50.
As to `O=C(NC1CCC1)N1N=CCC1c1ccccc1` (stereo not drawn) [Compound 2, N-cyclobutyl-5-phenyl-4,5-dihydro-1H-pyrazole-1-carboxamide], the EC50 was 1 to 1000 nM. `O=C(N1CC2(CCC2)C1)N1N=CCC1c1ccccc1` (stereo not drawn) [Compound 3, (5-phenyl-4,5-dihydro-1H-pyrazol-1-yl)(2-azaspiro[3.3]heptan-2-yl)methanone]: the 50% effective concentration (EC50) lay in the range of 1 to 1000 nM. The same measure, in the same setting: next, `CC1CN(C(=O)N2N=CCC2c2ccccc2)C1` (stereo not drawn) [Compound 4, (3-methylazetidin-1-yl)(5-phenyl-4,5-dihydro-1H-pyrazol-1-yl)methanone]: 1 to 1000 nM; `O=C(NC1CCCC1)N1N=CCC1c1ccccc1` (stereo not drawn) [Compound 5, N-cyclopentyl-5-phenyl-4,5-dihydro-1H-pyrazole-1-carboxamide]: 1 to 1000 nM. With `O=C(N1CCCC1)N1N=CCC1c1ccccc1` (stereo not drawn) [Compound 6, (5-phenyl-4,5-dihydro-1H-pyrazol-1-yl)(pyrrolidin-1-yl)methanone], the EC50 lay in the range of 1 to 1000 nM. The same measure, in the same setting: next, `O=C(N1CCCCC1)N1N=CCC1c1ccccc1` (stereo not drawn) [Compound 7, (5-phenyl-4,5-dihydro-1H-pyrazol-1-yl)(piperidin-1-yl)methanone]: 1 to 1000 nM; `CC1CCCCN1C(=O)N1N=CCC1c1ccccc1` (stereo not drawn) [Compound 8, (2-methylpiperidin-1-yl)(5-phenyl-4,5-dihydro-1H-pyrazol-1-yl)methanone]: 1000 to 10000 nM; `CC1CCCN(C(=O)N2N=CCC2c2ccccc2)C1` (stereo not drawn) [Compound 9, (3-methylpiperidin-1-yl)(5-phenyl-4,5-dihydro-1H-pyrazol-1-yl)methanone]: 1 to 1000 nM. Still for that read-out and setting: the same measure for `O=C(NC1CCCCC1)N1N=CCC1c1ccccc1` (stereo not drawn) [Compound 10, N-cyclohexyl-5-phenyl-4,5-dihydro-1H-pyrazole-1-carboxamide]: 1000 to 10000 nM; for `CC1CCCC(NC(=O)N2N=CCC2c2ccccc2)C1` (stereo not drawn) [Compound 11, N-(3-methylcyclohexyl)-5-phenyl-4,5-dihydro-1H-pyrazole-1-carboxamide]: 1 to 1000 nM. On the same count and under the same terms, the same measure for `CN(C(=O)N1N=CCC1c1ccccc1)C1CCCCC1` (stereo not drawn) [Compound 12, N-cyclohexyl-N-methyl-5-phenyl-4,5-dihydro-1H-pyrazole-1-carboxamide]: 1000 to 10000 nM. For `O=C(N1Cc2ccccc2C1)N1N=CCC1c1ccccc1` (stereo not drawn) [Compound 13, Isoindolin-2-yl(5-phenyl-4,5-dihydro-1H-pyrazol-1-yl)methanone], the EC50 was 1 to 1000 nM. As to `O=C(N1CC[C@@H](Oc2cccc(Cl)c2)C1)N1N=CCC1c1ccccc1` (stereo partly drawn) [Compound 35, ((R)-3-(3-chlorophenoxy)pyrrolidin-1-yl)(5-phenyl-4,5-dihydro-1H-pyrazol-1-yl)methanone], the 50% effective concentration (EC50) is 1 to 1000 nM.

In general, EC50 refers to the concentration that produces a half-maximal response.
